Experimental data taken from patent US11173184B2 (priority 2016, dated 2021).
Where two headings read alike, the source gives them in different places.

Assays:
Bacillus spp. = assay: Molecular enumeration (quantitative PCR) in digesta; assay type: in vivo
[1] = tested on: male Ross 308 broilers with induced Necrotic Enteritis challenge (E. maxima, Clostridium perfringens); assay type: in vivo, broiler chickens
Clostridium perfringens = assay type: in vivo
[2] = tested on: male Ross 308 broilers with induced Necrotic Enteritis challenge; design: species or system broiler chickens; details: in vivo
Vencobb 400 broilers = assay type: in vivo, broiler chickens
male Ross 308 broilers = assay type: in vivo, broiler chickens; details: 1-42 d
[3] = 1-35 days, necrotic enteritis challenge

Compound: CC[C@@H](C(=O)O)[C@@H]1O[C@@H]([C@@H](C)[C@H](O)[C@H](C)C(=O)[C@H](CC)[C@H]2O[C@]3(C=C[C@@H](O)[C@]4(CC[C@@](C)([C@H]5CC[C@](O)(CC)[C@H](C)O5)O4)O3)[C@H](C)C[C@@H]2C)[C@@H](C)C[C@@H]1C [Narasin]
- Bacillus spp. (Bacillus spp.; Day 11 Cecum): 5.24 Log^10 of gene copies/g
- Bacillus spp. (Bacillus spp.; Day 11 Ileum): 5.68 Log^10 of gene copies/g
- Bacillus spp. (Bacillus spp.; Day 18 Cecum): 4.54 Log^10 of gene copies/g
- Bacillus spp. (Bacillus spp.; Day 18 Ileum): 4.94 Log^10 of gene copies/g
- Bacillus spp. (Bacillus spp.; Day 35 Cecum): 5.23 Log^10 of gene copies/g
- Bacillus spp. (Bacillus spp.; Day 35 Ileum): 4.84 Log^10 of gene copies/g
- BW, average bird body weight [1, 3]: 2778.4 g
- FCR, feed conversion ratio (feed to gain) [1, 3]: 1.431 g/g
- aFCR, feed conversion ratio adjusted for mortalities [1, 3]: 1.425 g/g
- Mortality as a percentage of the pen population ([1]; day 11-35, necrotic enteritis challenge): 1.3%
- C. perfringens (Clostridium perfringens; Day 11 Cecum): 6.38 Log^10 of gene copies/g
- C. perfringens (Clostridium perfringens; Day 11 Ileum): 4.18 Log^10 of gene copies/g
- C. perfringens (Clostridium perfringens; Day 18 Cecum): 4.87 Log^10 of gene copies/g
- C. perfringens (Clostridium perfringens; Day 18 Ileum): 4.60 Log^10 of gene copies/g
- C. perfringens (Clostridium perfringens; Day 35 Cecum): 4.81 Log^10 of gene copies/g
- C. perfringens (Clostridium perfringens; Day 35 Ileum): 4.03 Log^10 of gene copies/g
- Footpad Lesion Score (0-4) [2]: 0.41

Compound: Bacitracin Methylene Disalicyclate [BMD]
- BW, average bird body weight (Vencobb 400 broilers; 1-21 d): 649.4 g
- FCR, feed conversion ratio (feed to gain) (Vencobb 400 broilers; 1-21 d): 1.45 g/g
- BW, average bird body weight (Vencobb 400 broilers; 1-42 d): 2321.4 g
- FCR, feed conversion ratio (feed to gain) (Vencobb 400 broilers; 1-42 d): 1.74 g/g

Compound: Zinc Bacitracin [ZnB]
- BW, average bird body weight (male Ross 308 broilers): 2988.0 g
- FCR, feed conversion ratio adjusted for mortalities (male Ross 308 broilers): 1.78 g/g
- Mortality (male Ross 308 broilers): 1.67%
